From ChEMBL document CHEMBL1201862, “PubChem BioAssay data set” (2004)
Calls of active or inactive are those of the source.

Assays:
[1] = NIH-3T3 fibroblast cytotoxicity, dose response, cytotoxicity control, cell-based, fluorescence, Alamar Blue, secondary assay (AID 2327); assay type: functional;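 also: NIH-3T3 mouse fibroblasts cultured with fluconazole at 8 µg/mL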
[2] = molecular target: G-protein coupled receptor 35 (Homo sapiens, UniProt Q9HC97); experiment: GPR35 antagonists blocking zaprinast-driven arrestin recruitment, primary screen, imaging, U2OS, beta-arrestin-GFP, zaprinast agonist (AID 2058); assay type: functional;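 also: antagonist potency meaning inhibition of agonist-induced arrestin redistribution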
Sequence of G-protein coupled receptor 35 (Q9HC97 whole entry): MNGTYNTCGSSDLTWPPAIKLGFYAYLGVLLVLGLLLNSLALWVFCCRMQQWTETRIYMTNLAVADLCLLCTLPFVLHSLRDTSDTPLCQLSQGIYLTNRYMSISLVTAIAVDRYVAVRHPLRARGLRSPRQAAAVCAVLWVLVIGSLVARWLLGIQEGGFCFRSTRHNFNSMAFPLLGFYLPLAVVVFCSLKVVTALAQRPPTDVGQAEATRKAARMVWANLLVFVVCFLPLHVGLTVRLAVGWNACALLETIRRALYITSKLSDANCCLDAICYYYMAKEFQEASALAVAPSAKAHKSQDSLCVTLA

[3] = inhibitors of firefly luciferase expression or activity, dose response, H4 neuroglioma cells, luminescence (AID 1990); assay type: functional, cell-based
[4] = tested on: Streptococcus sp. 'group A'; experiment: growth inhibition of control SK(-) GAS strain, dose response, counter-screen for streptokinase expression inhibitor project, luminescence, kanamycin, BacTiterGlo, confirmation (AID 1900); assay type: functional, organism-based
BJ [5] = experiment: cytotoxicity toward BJ-TERT fibroblasts, dose response, cell-based, RAS-independent, luminescence (AID 1933); assay type: functional; settings: Homo sapiens
[6] = Luminescence Cell-Based Dose Response HTS to Identify Inhibitors of 5'UTR Stem-Loop Driven Prion Protein mRNA Translation in H4 Neuroglioblastoma Cells. [Related pubchem assays: 1827 (Project Summary), 1813 (Primary HTS)]; assay type: functional
BJ [7] = experiment: cells; assay type: functional, cell-based; settings: Homo sapiens
[8] = C. albicans growth with fluconazole, confirmation, fluorescence, retest (AID 2467); assay type: functional, cell-based
[9] = molecular target: T1, Serine/threonine-protein phosphatase (Candida dubliniensis (strain CD36 / CBS 7987 / NCPF 3949 / NRRLY-17841) (Yeast), UniProt B9W6M3); experiment: calcineurin pathway inhibitors in yeast reporter, dose response, S. cerevisiae, CDRE-lacZ, luminescence, secondary (AID 2388); assay type: functional, cell-based;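 also: yeast reporter cells carrying a calcineurin-responsive lacZ construct stimulated with calcium chloride; luminescent beta-galactosidase reporter signal in whole cells rather than isolated phosphatase activity; potency for inhibition where a drop in reporter signal means calcineurin blockade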
T1 sequence (B9W6M3 whole entry): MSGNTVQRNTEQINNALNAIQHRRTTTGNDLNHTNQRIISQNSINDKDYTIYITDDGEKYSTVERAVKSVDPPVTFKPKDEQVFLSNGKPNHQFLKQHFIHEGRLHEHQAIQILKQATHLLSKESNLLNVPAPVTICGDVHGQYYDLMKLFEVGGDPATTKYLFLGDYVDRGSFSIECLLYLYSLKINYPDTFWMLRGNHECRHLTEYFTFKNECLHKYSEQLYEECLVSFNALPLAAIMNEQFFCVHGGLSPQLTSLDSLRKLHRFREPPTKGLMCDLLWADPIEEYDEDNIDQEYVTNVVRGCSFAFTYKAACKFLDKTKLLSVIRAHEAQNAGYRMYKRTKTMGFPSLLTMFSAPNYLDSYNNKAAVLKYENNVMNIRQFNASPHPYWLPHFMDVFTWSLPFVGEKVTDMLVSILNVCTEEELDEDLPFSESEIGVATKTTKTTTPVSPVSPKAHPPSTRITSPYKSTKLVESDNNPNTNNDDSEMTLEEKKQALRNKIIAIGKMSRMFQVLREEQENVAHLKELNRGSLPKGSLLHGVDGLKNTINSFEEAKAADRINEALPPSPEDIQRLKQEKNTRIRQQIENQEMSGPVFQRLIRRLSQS

BJ [10] = experiment: cytotoxicity toward BJ-TERT-LT-ST fibroblasts, dose response, cell-based, RAS-independent, luminescence (AID 1935); assay type: functional; settings: Homo sapiens;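 also: BJ fibroblasts immortalized with TERT plus LT and ST oncogenes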
[11] = cytotoxicity toward DRD oncogenic fibroblasts, dose response, cell-based, non-viral oncogenic, luminescence (AID 1934); assay type: functional; settings: Homo sapiens
Streptococcus = experiment: Group A Streptococcus viability loss, dose response, counter-screen for streptokinase expression inhibitor project, luminescence, BacTiterGlo (AID 1915); assay type: functional, organism-based;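 also: potency for reduction of bacterial viability or growth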
[12] = molecular target: Cyclin-dependent kinase 5/CDK5 activator 1 (Homo sapiens, UniProt Q00535); experiment: CDK5/p35 kinase inhibitors, dose response, biochemical, cherry-picked samples, set 2 (AID 504545)
Sequence of Cyclin-dependent kinase 5/CDK5 activator 1 (Q00535 whole entry): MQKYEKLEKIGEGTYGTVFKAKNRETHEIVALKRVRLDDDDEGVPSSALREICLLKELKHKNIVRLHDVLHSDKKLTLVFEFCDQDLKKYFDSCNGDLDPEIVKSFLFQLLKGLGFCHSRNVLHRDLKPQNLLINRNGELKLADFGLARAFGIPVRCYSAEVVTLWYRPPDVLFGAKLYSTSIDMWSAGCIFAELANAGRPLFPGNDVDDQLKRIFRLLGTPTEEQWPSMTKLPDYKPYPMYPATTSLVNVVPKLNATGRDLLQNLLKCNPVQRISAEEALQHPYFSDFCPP
Sequence of Cyclin-dependent kinase 5/CDK5 activator 1 (Q15078 whole entry, further chain): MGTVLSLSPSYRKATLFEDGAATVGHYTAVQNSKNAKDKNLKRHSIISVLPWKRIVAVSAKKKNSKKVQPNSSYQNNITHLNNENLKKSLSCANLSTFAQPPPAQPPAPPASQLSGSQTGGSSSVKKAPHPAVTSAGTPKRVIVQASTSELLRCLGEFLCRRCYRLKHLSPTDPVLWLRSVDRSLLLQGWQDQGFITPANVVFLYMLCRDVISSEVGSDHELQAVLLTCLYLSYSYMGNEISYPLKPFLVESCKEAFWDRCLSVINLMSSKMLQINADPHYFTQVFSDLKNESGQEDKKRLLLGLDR

[13] = cytotoxicity in HEK-293T cells, dose response, cytotoxicity control for TCR NF-kB inhibitor project, luminescence, T-cell screen hits (AID 489026); assay type: functional, cell-based;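 also: cells exposed to compound about 14 hours before the viability readout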
Nonstructural protein 1 = Nonstructural protein 1 (Influenza A virus, UniProt Q194T2); assay type: functional, Influenza A virus (A/California/07/2009(H1N1))
Sequence of Nonstructural protein 1 (Q194T2 whole entry): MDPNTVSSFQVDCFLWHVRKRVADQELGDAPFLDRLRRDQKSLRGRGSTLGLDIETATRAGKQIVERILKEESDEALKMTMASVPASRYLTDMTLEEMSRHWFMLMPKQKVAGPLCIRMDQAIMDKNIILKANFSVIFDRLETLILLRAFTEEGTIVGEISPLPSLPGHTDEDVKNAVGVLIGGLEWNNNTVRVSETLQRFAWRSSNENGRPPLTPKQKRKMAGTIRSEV

Cysteine protease ATG4B = molecular target: T2, Cysteine protease ATG4B (Homo sapiens, UniProt Q9Y4P1); assay type: functional;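 also: Fluorescence-based dose-response confirmation assay measuring inhibition of ATG4B activity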
T2 sequence (Q9Y4P1 whole entry): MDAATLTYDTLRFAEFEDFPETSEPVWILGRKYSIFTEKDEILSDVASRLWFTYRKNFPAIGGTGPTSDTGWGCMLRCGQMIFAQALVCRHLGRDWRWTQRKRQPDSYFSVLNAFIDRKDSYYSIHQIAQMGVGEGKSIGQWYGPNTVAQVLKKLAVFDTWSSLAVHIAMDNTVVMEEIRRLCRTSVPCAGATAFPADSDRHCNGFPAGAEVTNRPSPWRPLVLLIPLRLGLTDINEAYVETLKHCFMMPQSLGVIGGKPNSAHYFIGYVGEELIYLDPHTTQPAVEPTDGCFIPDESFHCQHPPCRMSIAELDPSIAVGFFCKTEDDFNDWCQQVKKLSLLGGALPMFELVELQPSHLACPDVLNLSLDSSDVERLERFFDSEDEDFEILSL

Phospholipase A2 = Phospholipase A2 (Homo sapiens, UniProt P04054); assay type: functional;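 also: confirmatory dose-response counterscreen on phospholipase A2, testing hits that came from an ultra-high-throughput screen for ATG4B inhibitors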
Sequence of Phospholipase A2 (P04054 whole entry): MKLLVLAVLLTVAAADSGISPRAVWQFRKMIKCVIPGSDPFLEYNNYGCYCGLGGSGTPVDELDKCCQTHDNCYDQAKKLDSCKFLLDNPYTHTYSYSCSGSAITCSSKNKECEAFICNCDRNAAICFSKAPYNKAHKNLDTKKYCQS

[14] = molecular target: T3, Apoptotic protease-activating factor 1 (Homo sapiens, UniProt O14727); assay type: functional
T3 sequence (O14727 whole entry): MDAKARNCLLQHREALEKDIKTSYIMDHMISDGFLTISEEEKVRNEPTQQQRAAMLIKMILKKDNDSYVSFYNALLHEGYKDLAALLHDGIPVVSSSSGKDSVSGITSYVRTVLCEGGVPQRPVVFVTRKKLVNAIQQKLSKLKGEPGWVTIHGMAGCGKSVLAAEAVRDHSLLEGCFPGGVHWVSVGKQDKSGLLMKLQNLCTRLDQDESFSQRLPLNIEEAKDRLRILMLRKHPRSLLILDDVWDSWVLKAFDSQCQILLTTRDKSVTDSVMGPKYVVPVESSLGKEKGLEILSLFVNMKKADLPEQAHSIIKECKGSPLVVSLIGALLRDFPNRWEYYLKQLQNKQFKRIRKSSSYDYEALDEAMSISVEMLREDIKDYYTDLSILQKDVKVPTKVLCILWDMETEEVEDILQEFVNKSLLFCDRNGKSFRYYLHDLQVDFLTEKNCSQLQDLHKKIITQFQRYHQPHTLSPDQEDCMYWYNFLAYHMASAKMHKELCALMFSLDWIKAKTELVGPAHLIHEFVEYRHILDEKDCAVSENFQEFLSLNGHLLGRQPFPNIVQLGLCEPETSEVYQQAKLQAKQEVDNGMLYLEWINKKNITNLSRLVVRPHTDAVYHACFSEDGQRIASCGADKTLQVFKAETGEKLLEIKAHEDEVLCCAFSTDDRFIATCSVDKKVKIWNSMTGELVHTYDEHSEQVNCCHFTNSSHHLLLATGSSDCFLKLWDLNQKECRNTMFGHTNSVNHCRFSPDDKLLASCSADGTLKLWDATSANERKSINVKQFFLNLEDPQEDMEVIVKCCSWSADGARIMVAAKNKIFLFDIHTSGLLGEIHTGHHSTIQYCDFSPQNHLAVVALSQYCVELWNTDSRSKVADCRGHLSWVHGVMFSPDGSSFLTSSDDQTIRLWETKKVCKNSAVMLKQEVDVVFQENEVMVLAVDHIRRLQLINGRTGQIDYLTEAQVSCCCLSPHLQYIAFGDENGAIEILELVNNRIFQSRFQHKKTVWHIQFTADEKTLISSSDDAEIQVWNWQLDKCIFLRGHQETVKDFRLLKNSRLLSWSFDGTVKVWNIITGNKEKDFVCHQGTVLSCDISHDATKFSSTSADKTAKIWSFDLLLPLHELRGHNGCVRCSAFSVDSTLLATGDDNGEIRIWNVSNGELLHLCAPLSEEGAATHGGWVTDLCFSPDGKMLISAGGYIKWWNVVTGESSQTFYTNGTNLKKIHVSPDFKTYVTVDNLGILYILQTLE

BJ [15] = experiment: cytotoxicity toward Ras-transformed BJeLR fibroblasts, dose response, cell-based, alamar blue fluorescence, cherrypicked samples (AID 2631); assay type: functional; settings: Homo sapiens;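 also: confirmatory dose-response assay in RAS-dependent BJ fibroblasts engineered with TERT, LT and ST, with cytotoxicity read by fluorescence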
Beta-arrestin-1 = Beta-arrestin-1 (Homo sapiens, UniProt P49407); experiment: inhibitors of arrestin peptide binding to AP2, dose response, biochemical, cherry pick 1, beta2-adaptin appendage, flow cytometry (AID 588783); assay type: functional
Sequence of Beta-arrestin-1 (P49407 whole entry): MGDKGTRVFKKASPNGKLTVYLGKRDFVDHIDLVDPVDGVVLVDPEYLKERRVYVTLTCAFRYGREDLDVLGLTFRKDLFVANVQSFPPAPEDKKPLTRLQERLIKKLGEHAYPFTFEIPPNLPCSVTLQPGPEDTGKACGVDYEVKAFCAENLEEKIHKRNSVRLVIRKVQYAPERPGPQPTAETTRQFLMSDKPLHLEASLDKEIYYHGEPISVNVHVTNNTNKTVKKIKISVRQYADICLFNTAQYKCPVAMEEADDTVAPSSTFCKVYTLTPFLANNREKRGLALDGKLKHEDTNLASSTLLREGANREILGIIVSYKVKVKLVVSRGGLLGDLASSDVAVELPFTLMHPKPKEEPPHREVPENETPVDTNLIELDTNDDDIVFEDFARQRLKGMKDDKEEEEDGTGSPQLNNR

[16] = molecular target: ATP-dependent molecular chaperone HSP82 (Candida albicans (strain WO-1) (Yeast), UniProt C4YTQ8); experiment: loss of DOC-induced GRE-beta-galactosidase reporter signal, dose response, Hsp90 inhibitor project, S. cerevisiae, luminescence (AID 2400); assay type: functional, cell-based;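 also: beta-galactosidase luminescence from glucocorticoid response element reporter as proxy for Hsp90 function; inhibitor potency where signal loss means Hsp90 inhibition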
Sequence of ATP-dependent molecular chaperone HSP82 (C4YTQ8 whole entry): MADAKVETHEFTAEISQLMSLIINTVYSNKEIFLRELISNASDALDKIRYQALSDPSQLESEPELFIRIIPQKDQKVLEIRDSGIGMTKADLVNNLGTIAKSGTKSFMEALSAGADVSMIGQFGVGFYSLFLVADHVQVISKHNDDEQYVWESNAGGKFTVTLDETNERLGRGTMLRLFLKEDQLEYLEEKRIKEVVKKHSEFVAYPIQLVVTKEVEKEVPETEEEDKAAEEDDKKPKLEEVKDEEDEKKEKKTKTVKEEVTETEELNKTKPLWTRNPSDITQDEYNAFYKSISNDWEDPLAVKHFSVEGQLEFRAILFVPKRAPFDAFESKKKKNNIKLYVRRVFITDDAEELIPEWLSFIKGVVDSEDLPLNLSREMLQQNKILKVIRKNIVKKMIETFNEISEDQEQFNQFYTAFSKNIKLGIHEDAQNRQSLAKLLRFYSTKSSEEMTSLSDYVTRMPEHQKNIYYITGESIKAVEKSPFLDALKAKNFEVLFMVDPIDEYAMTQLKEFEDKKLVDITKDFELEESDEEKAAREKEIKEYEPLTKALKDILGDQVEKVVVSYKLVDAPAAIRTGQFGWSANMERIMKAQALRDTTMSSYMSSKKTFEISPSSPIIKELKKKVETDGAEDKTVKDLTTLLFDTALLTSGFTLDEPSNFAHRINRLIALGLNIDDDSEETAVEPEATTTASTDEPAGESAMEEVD

CAAX prenyl protease 1 = CAAX prenyl protease 1 (Saccharomyces cerevisiae S288c, UniProt P47154); experiment: Ste24 protease inhibitors, dose response, biochemical, S. cerevisiae, plate reader, cherry-pick (AID 488815)
Sequence of CAAX prenyl protease 1 (P47154 whole entry): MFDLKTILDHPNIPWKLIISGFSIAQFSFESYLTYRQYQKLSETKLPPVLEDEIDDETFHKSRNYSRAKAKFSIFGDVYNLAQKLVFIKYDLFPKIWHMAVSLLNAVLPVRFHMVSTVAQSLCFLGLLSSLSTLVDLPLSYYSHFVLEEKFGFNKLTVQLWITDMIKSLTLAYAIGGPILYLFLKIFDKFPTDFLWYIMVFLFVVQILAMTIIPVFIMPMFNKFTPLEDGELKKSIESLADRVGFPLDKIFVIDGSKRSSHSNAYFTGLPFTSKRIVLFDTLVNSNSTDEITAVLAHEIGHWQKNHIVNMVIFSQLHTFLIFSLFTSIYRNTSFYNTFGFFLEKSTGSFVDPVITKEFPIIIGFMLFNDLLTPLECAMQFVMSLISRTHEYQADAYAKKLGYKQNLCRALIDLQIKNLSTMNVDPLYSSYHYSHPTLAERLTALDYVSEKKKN

CAAX prenyl protease 2 = CAAX prenyl protease 2 (Homo sapiens, UniProt Q9Y256); experiment: human Rce1 protease inhibitors, dose response, biochemical, yeast membranes, quenched-peptide fluorescence, cherry-pick (AID 588849)
Sequence of CAAX prenyl protease 2 (Q9Y256 whole entry): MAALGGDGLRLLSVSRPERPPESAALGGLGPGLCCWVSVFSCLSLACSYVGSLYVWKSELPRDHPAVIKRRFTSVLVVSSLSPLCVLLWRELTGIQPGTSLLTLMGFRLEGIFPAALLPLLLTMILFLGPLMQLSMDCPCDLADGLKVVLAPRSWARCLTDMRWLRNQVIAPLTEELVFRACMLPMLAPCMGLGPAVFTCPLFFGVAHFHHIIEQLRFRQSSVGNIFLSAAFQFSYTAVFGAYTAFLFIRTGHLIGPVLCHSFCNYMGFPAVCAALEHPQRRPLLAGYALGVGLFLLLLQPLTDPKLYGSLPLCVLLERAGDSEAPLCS

[17] = molecular target: T4, Short transient receptor potential channel 4 (Mus musculus, UniProt Q9QUQ5); experiment: mouse TRPC4 channel activators, dose response, cell-based, HEK293 TRPC4/mu-opioid, Fluo-4 calcium (AID 434937); assay type: functional
T4 sequence (Q9QUQ5 whole entry): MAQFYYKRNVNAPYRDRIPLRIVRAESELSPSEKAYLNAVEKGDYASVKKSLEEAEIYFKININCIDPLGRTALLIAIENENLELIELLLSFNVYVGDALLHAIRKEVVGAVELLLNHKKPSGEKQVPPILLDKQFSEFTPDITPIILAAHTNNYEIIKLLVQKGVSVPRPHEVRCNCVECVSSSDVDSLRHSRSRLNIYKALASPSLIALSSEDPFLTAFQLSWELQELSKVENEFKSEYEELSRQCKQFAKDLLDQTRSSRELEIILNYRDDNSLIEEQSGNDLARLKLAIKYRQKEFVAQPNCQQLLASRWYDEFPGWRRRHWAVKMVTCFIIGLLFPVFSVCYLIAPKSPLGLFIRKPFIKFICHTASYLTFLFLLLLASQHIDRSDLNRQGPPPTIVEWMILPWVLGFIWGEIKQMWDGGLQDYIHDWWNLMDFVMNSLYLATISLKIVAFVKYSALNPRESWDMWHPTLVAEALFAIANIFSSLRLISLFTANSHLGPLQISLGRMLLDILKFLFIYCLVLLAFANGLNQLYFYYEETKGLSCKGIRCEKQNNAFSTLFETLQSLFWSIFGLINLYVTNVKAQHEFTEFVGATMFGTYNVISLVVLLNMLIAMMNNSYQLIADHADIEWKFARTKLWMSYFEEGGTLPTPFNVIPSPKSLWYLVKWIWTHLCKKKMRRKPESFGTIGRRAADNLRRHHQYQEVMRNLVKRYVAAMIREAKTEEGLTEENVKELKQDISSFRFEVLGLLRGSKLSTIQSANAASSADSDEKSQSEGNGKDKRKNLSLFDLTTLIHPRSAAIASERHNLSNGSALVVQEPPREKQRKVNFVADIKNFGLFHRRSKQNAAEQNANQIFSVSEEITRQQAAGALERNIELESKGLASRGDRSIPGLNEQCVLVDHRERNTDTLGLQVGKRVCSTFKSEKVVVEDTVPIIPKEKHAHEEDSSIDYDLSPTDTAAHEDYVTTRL

[18] = molecular target: Delta-type opioid receptor (Homo sapiens, UniProt P41143); experiment: Counterscreen for agonists of heterodimerization of the mu 1 (OPRM1) and delta 1 (OPRD1) opioid receptors: Luminescence-based cell-based high throughput dose response assay to identify agonists of OPRD1 homodimerization. [Related pubchem assays (depositor defined):AID504326, AID504355, AID504692, AID504904, AID504905]; assay type: functional
Sequence of Delta-type opioid receptor (P41143 whole entry): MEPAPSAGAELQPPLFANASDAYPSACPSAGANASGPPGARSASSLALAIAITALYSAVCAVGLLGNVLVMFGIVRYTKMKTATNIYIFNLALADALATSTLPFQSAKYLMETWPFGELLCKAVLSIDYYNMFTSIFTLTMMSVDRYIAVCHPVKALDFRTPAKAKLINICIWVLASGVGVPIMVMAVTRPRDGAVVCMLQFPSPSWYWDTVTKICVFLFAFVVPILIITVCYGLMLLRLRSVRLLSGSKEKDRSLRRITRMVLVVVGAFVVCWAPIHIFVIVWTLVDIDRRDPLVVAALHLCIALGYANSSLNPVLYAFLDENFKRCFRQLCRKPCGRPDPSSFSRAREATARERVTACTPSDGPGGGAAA

Mu-type opioid receptor = Mu-type opioid receptor (Homo sapiens, UniProt P35372); experiment: Counterscreen for agonists of heterodimerization of the mu 1 (OPRM1) and delta 1 (OPRD1) opioid receptors: Luminescence-based cell-based high throughput dose response assay to identify agonists of OPRM1 homodimerization.; assay type: functional;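 also: U2OS cells expressing OPRM1 and beta-arrestin as split beta-galactosidase partners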
Sequence of Mu-type opioid receptor (P35372 whole entry): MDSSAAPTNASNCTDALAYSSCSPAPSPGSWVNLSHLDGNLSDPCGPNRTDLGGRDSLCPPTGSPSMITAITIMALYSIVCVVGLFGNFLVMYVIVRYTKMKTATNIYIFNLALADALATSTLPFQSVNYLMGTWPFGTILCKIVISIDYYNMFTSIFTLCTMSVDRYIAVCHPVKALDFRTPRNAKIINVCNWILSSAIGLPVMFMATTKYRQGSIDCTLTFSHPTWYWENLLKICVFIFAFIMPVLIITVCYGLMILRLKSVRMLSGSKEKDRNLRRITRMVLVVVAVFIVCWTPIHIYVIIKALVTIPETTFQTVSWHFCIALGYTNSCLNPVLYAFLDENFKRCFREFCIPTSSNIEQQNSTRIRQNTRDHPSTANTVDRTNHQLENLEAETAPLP

[19] = molecular target: 5-hydroxytryptamine receptor 5A (Homo sapiens, UniProt P47898); experiment: Counterscreen for agonists of OPRM1-OPRD1 heterodimerization: luminescence-based cell-based high throughput dose response assay to identify agonists of 5-hydroxytryptamine (serotonin) 5A receptor (HTR5A). [Related pubchem assays (depositor defined):AID504326, AID504355, AID504692, AID504904, AID504905]; assay type: functional
Sequence of 5-hydroxytryptamine receptor 5A (P47898 whole entry): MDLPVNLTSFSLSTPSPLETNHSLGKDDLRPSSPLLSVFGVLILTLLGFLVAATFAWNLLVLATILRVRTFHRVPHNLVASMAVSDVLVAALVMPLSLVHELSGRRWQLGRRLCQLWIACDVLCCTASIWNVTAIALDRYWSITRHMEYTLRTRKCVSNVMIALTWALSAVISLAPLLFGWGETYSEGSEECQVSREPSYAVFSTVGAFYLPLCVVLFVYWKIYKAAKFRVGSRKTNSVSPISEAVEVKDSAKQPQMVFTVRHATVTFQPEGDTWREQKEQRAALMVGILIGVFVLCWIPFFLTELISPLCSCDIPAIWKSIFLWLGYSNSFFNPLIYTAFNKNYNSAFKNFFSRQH

CCN1/C(=C/C(C)=C/c2sc3ccccc3[n+]2CC)Sc2ccccc21
active: EC50 [1] 77.7 µM | IC50 [2] 1.01 µM | EC50 [3] < 0.1 µM | EC50 [4] 2.15 µM | EC50 (BJ [5]) 4.56 µM | EC50 [6] 1.68 µM | EC50 (BJ [7]) 6.01 µM | EC50 [8] 0.051 µM | EC50 [11] 6.17 µM | EC50 (Streptococcus) 2.74 µM | AC50 [12] 41.1 µM | IC50 (Nonstructural protein 1) 5.7 µM | IC50 (Cysteine protease ATG4B) 8.62 µM | IC50 (Phospholipase A2) 7.86 µM | IC50 [14] 19.4 µM | EC50 (BJ [15]) 1.74 µM | IC50 (Beta-arrestin-1) 2.2 µM | EC50 [16] 18.3 µM
inactive: EC50 [9] > 180 µM | IC50 [13] 64.4 µM
inconclusive: EC50 (BJ [10]) 5.48 µM

CC1CCCC(/C=N/c2ccccc2C(=O)O)=C1O (configuration not stated)
active: AC50 (CAAX prenyl protease 1) 4.3 µM | AC50 (CAAX prenyl protease 2) 11.6 µM

Cc1ccccc1N(CC(=O)N/N=C/c1ccc(F)cc1)C(=O)c1ccccc1
inactive: EC50 [18] > 92.5 µM | EC50 (Mu-type opioid receptor) > 92.5 µM | EC50 [19] > 92.5 µM
active: EC50 [17] 2.11 µM
